Experimental findings from ChEMBL document CHEMBL4616661, “Sesquiterpenoids from Cultures of the Basidiomycetes Irpex lacteus” (J Nat Prod, 2020) are described below.

One may read the IC50 as the concentration that inhibits the measured activity by half.

Format in all cases: functional, cell-based
In assay [1] the test system is SW480. The assay can be described thus: Cytotoxicity against human SW480 cells assessed as reduction in cell viability up to 40 uM after 48 hrs by MTT assay.
The subject of assay [2] is RAW264.7. As to the kind of experiment: Inhibition of NO production in mouse RAW264.7 macrophages at 40 uM incubated for 18 hrs by Griess reagent based assay. (In general: Griess reagent forms a coloured azo dye with nitrite.)
Assay [3] concerns HL-60. As to the kind of experiment: Cytotoxicity against human HL60 cells assessed as reduction in cell viability up to 40 uM after 48 hrs by MTT assay. A general note: Tetrazolium assays rely on reduction of a dye to a coloured formazan, in cell work by metabolically active cells.
In assay [4] the test system is A549. The assay can be described thus: Cytotoxicity against human A549 cells assessed as reduction in cell viability up to 40 uM after 48 hrs by MTT assay.
The test system of assay [5] is MCF7. As to the kind of experiment: Cytotoxicity against human MCF7 cells assessed as reduction in cell viability up to 40 uM after 48 hrs by MTT assay.
The test system of assay [6] is SMMC-7721. As to the kind of experiment: Cytotoxicity against human SMMC7721 cells assessed as reduction in cell viability up to 40 uM after 48 hrs by MTT assay.
Assay [7] relates to MCF7. As to the kind of experiment: Cytotoxicity against human MCF7 cells assessed as reduction in cell viability at 40 uM after 48 hrs by MTT assay.
For assay [8], the system named is SW480. As to the kind of experiment: Cytotoxicity against human SW480 cells assessed as reduction in cell viability at 40 uM after 48 hrs by MTT assay.
Assay [9] concerns HL-60. As to the kind of experiment: Cytotoxicity against human HL60 cells assessed as reduction in cell viability at 40 uM after 48 hrs by MTT assay.
The subject of assay [10] is A549. As to the kind of experiment: Cytotoxicity against human A549 cells assessed as reduction in cell viability at 40 uM after 48 hrs by MTT assay.
The test system of assay [11] is SMMC-7721. As to the kind of experiment: Cytotoxicity against human SMMC7721 cells assessed as reduction in cell viability at 40 uM after 48 hrs by MTT assay.
For assay [12], the system named is B-cell line. The assay can be described thus: Immunosuppressive activity in BALB/c mouse B cells assessed as inhibition of LPS-induced cell proliferation by measuring reduction in uptake of [3H]-thymidine after 8 hrs by beta scintillation counting method.
For assay [13], the system named is RAW264.7. The assay can be described thus: Inhibition of NO production in mouse RAW264.7 macrophages incubated for 18 hrs by Griess reagent based assay. The conditions noted are these: RAW264.7, 18 h.
The test system of assay [14] is T-cell. As to the kind of experiment: Immunosuppressive activity in BALB/c mouse T cells assessed as inhibition of ConA-induced cell proliferation by measuring reduction in uptake of [3H]-thymidine after 8 hrs by beta scintillation counting method.

Each structure is given as a SMILES string. The source made the active and inactive calls. The calls are words filed in the database; no cut-off is given here.

For `C[C@H]1CCC2=C(COC2=O)[C@@H]2CC(C)(C)[C@H](O)[C@@H]12`, the result in [1], in assay [3], in assay [4], in assay [5] and in [6] was Active. In addition, the inhibition result in [2] was “inactive”.

Consider `C[C@H]1CCC2=C(COC2=O)[C@@]2(O)CC(C)(C)C[C@@H]12`, for which the result in [1], in [3], in [4], in assay [5] and in assay [6] was Active. Further, the inhibition result in assay [2] is “inactive”.

As for `C[C@@H]1C[C@H](O)C2=C(COC2=O)[C@]23O[C@H]2C(C)(C)C[C@]13O`, the result in assay [7], in assay [8], in [9], in assay [10] and in [11] was inactive. The inhibition entry in assay [2] is “inactive”.

For `Cc1ccc2c(c1)[C@H](C)C[C@H](O)[C@@H]1C(=O)OC[C@@H]21`, the result in assay [7], in assay [8], in assay [9], in [10] and in [11] was inactive. Further, the inhibition result in assay [2] was “inactive”. Further, the IC50 in assay [12] worked out at 22.4 µM.

As for `C[C@@H]1C[C@H](O)C2=C(COC2=O)C2=C[C@](C)(CO)C[C@@H]21`, the result in assay [1], in assay [3], in assay [4], in assay [5] and in [6] was Active. Further, the inhibition entry in assay [2] was “inactive”.

On to `C[C@@H]1C[C@H](O)C2=C(COC2=O)C2=CC(C)(C)C[C@@H]21`, for which the outcome in assay [1], in [3], in assay [4], in assay [5] and in assay [6] was Active. For the same molecule, in [2], the inhibition entry is “inactive”.

For `C[C@H]1C[C@@H](O)C2=C(COC2=O)[C@@H]2CC(C)(C)C[C@@H]12`, the outcome in [7], in assay [8], in assay [9], in assay [10] and in assay [11] was inactive. Also, the inhibition result in assay [2] is “inactive”.

For the molecule `C[C@@H]1C[C@H](O)C2=C(COC2=O)[C@]23O[C@H]2C(C)(C)C[C@H]13`, the outcome in assay [7], in assay [8], in assay [9], in [10] and in assay [11] was inactive. The inhibition result in [2] is “inactive”.

As for `C[C@H]1[C@H]2CC(C)(C)C[C@@H]2C2=C(C[C@@H]1O)C(=O)OC2`, the result in assay [7], in assay [8], in assay [9], in assay [10] and in [11] was inactive. In assay [2], the inhibition entry was “inactive”.

For `C[C@@H]1CC[C@H]2C(C(=O)O)=C[C@@H]3C[C@@](C)(C(=O)O)C[C@@]132`, the result in assay [7], in [8], in assay [9], in [10] and in assay [11] was inactive. Besides, the IC50 in [13] came out at 22.7 µM.

As to `Cc1cc2c(cc1O)C1=C(CC[C@H]2C)C(=O)OC1`, the outcome in assay [7], in assay [8], in [9], in assay [10] and in assay [11] was inactive. The inhibition result in assay [2] is “inactive”. In addition, the concentration for half-maximal inhibition (IC50) stood at 16.7 µM in assay [14] and 13.6 µM in assay [12].
